The source of these data is patent US20110172422A1, “Methods of Making Pharmacokinetically Improved Compounds Comprising Functional Residues or Groups and Pharmaceutical Compositions Comprising Said Compounds” (SURFACE LOGIX, INC., priority 2005, published 2011).

Structures are written as SMILES. pIC50: −log10 of the molar value. Where two headings read alike, the source gives them in different places.

The nature of data set [1]: Protein binding. It is filed as in vitro ADME. The conditions noted are these: human, human serum components. As for the experimental part: In general, protein binding is assessed by measuring the capacity of molecules of the invention to bind to one or more human serum components or mimics thereof. In one embodiment, suitable functional residues may be identified by screening of surfaces comprising such residues for their ability to resist adsorption of serum components, including, but not limited to serum proteins, and preferably human serum proteins. Candidate residues can be screened directly by attaching them to a solid support and testing the support for protein resistance. Alternatively, candidate residues are incorporated into, or linked to molecules of pharmaceutical interest. Such compounds may be synthesized on a solid support, or bound to a solid support after synthesis. In a non-limiting example of a direct binding assay, immobilized candidate functional residues or molecules incorporating such residues are tested for their ability to bind serum components. The serum components can be labeled with a signaling moiety for detection, or a labeled secondary reagent that binds to such serum components can be used.

Data set [2] is described as follows: Cytotoxicity GC50. It is filed as cell-based.
The target in data set [3] is PDE-3. The data set can be described thus: Phosphodiesterase inhibition PDE-3. It is filed as biochemical. As for the experimental part:
(§1) Phosphodiesterase inhibition was determined by methods known to one of skill in the art.

Data set [4] is described as follows: Solubility. In kind it is physicochemical.
Data set [5] in a line: PAMPA permeability. The conditions noted are these: PAMPA. In kind it is in vitro ADME.
The target in data set [6] is PDE-6. The data set can be described thus: Phosphodiesterase inhibition PDE-6. In kind it is biochemical. As for the experimental part:
as §1

A short description of data set [7]: Non-specific binding. In kind it is in vitro ADME.
Data set [8] in a line: Caco-2 permeability. In kind it is in vitro ADME. The conditions noted are these: human; for Papp A→B: AtoB; for Papp B→A: BtoA. An excerpt:
Several model systems are available, employing monolayers of various cell types, for evaluation of active transport of pharmaceutically active substances. For example, monolayers of Caco-2 intestinal epithelial cells can be used to evaluate active transport of substances between the intestine and the bloodstream. When plated on a surface which allows the flow of material from apical to basolateral and vice versa, such cells form a biological membrane which can be used to simulate physiological absorption and bio-availability. In another example, mouse brain capillary endothelial cell (MBEC) lines have been established to evaluate active transport in and out of the central nervous system. Another example of such cells is HT29 human colon carcinoma cells. Further, monolayers expressing particular transporter proteins can be established using transfected cells. For example, Sasaki et al (2002) J. Biol. Chem. 8:6497 used a double-transfected Madin-Darby canine kidney cell monolayer to study transport of organic anions.
Background: Caco-2 monolayers are a common model of the intestinal barrier.

For data set [9], the target named is PDE-1. The data set can be described thus: Phosphodiesterase inhibition PDE-1. It is filed as biochemical. As for the experimental part: as §1
Data set [10] in a line: Cytotoxicity LC50. It is filed as cell-based. The conditions noted are these: Chronic; read-out: Cytotox LC50 Chronic.
The target of data set [11] is T1, PDE5 (Homo sapiens, UniProt O76074). The data set can be described thus: Phosphodiesterase inhibition IC50 (Table 1). It is filed as biochemical. The conditions noted are these: PDE5 inhibitor scaffold Compound B. As for the experimental part: as §1
A short description of data set [12]: RLM half-life. It is filed as in vitro ADME. The conditions noted are these: rat, liver microsomes, read-out: RLM T1/2.
Data set [13] addresses T1, PDE5. The data set can be described thus: Phosphodiesterase inhibition PDE-5 human. It is filed as biochemical. As for the experimental part: as §1
Where [14] appears, read: pH 2.7, aqueous buffer, pH 2.7, read-out: Solubility pH 2.7.
Setting [15] is: pH 7.4, aqueous buffer, pH 7.4, read-out: Solubility pH 7.4.

Usually fraction unbound stands for the share of the substance not bound to proteins or other matrix. For orientation: pIC50 means −log10 of the IC50, conventionally taken in molar units. The low end stands for a high IC50, the high end for a low IC50. Broadly, the solubility is the concentration that dissolves in the medium under given conditions. As usually defined, the Papp A→B is the apparent permeability from the apical to the basolateral side of a cell layer. The term Papp B→A denotes the apparent permeability from the basolateral to the apical side of a cell layer. Regarding `CCCc1nc(C)c2c(=O)[nH]c(-c3cc(S(=O)(=O)N(C)C(C)(C)C(=O)N(C)C)ccc3OCC)nn12` [Compound 3], the fraction unbound in data set [1] was 0.076. Moreover, the “Cytotox GC50” value in data set [2] was 100 µM. The values for the pIC50 in [3], in [6] and in [9] were 6.39, 8.77 and 8.00, respectively. Moreover, the solubility in data set [4] (setting [14]) and in [4] (setting [15]) was above 100 µg/mL each time. In addition, the Papp in [5] (Hex, read-out: PAMPA Hex) was found to be 9.11 ×10⁻⁶ cm/s. In addition, the “Non-Spec Binding” value in [7] is reported as 14.3%. In addition, in data set [8], the apparent permeability from apical to basolateral (Papp A→B) stood at 28.9 ×10⁻⁶ cm/s. In addition, the Papp B→A in data set [8] is 58.5 ×10⁻⁶ cm/s.
In [1], `CCCc1nc(C)c2c(=O)[nH]c(-c3cc(S(=O)(=O)NC)ccc3OCC)nn12` [Compound 20] showed a fraction unbound of 0.0397. The “Cytotox GC50” value in data set [2] was found to be 100 µM. In addition, the pIC50 in data set [3] is 6.00; in data set [11], 9.62; in [6], 8.38; in data set [13], 9.61; in data set [9], 7.55. Moreover, the CC50 in data set [10] amounted to 100 µM. The solubility in [4] (setting [14]) and in data set [4] (setting [15]) was above 100 µg/mL each time. The Papp in data set [5] (Hex, read-out: PAMPA Hex) amounted to 0.37 ×10⁻⁶ cm/s; in data set [5] (Lec, read-out: PAMPA Lec) it was 0.00384 ×10⁻⁶ cm/s. In addition, in [7], the “Non-Spec Binding” value came to 16.23%. The half-life in data set [12] worked out at 60.2 min. In data set [8], this compound displayed an apparent permeability from apical to basolateral (Papp A→B) of 24.3 ×10⁻⁶ cm/s. For the same compound, in [8], the apparent permeability from basolateral to apical (Papp B→A) turned out to be 53 ×10⁻⁶ cm/s.
